Read-outs that look alike come from different tables or passages of the source.
Columns and labels:
[1] = molecular target: T1, erythromycin resistant methylase (Erm-AM) (Streptococcus pneumoniae, UniProt P21236); assay type: binding; conditions: 25-compound library, mass spectrometry of five fractions, with Erm AM vs buffer only
T1 construct: made in house; host or cells: E. coli BL21(DE3)/pV4, pET-24(+)
Description: (§1) Proteins and protein fragments were isolated from recombinant material produced in E. coli as described in detail below. Proteins and protein fragments were dialyzed into standard buffers comprising either a) a mixture of 20 mM ammonium bicarbonate and 1 mM sodium azide, the pH adjusted to pH 7.2 by the addition of acetic acid, or b) 50 mM Tris-HCl, 30 mM KCl, 10 mM magnesium acetate, 10 mM 2-mercaptoethanol, 1 mM sodium azide, and 10% glycerol, pH adjusted to 7.8. In the case of the first buffer system, additional ingredients, specific to each protein, were added to the buffer mixture which included 5 mM 2-mercaptoethanol for erythromycin resistant methylase (Erm-AM), and both 5 mM 2-mercaptoethanol and 10 mM calcium chloride for the stromelysin catalytic domain (SCD). Initial protein or protein fragment concentrations ranged between 100 μM and 1 mM.
(§2) Test compounds were made up in concentrated solutions in dimethyl sulfoxide and diluted into the protein or protein fragment buffer solutions such that the final concentration of dimethyl sulfoxide in the buffer solutions was 1% volume/volume.
The compounds were added to the protein or buffer solutions in 7 mm×20 mm polycarbonate centrifuge tubes, mixed by vortexing, and placed in the centrifuge. Each mixture was then subjected to centrifugation at a speed and for a period of time sufficient to clear the solution of macromolecular target, but not of ligand. Centrifugation was carried out either in a Model TL-100 ultracentrifuge at 100,000 rpm using a TLA-100 rotor, or in a Model L-70 ultracentrifuge at 42,000 rpm using a type 42.2 rotor. (Both centrifuges are manufactured by Beckman Instruments, 1050 Page Mill Road, Palo Alto, Calif. […], USA.)
Following centrifugation, the tubes were removed from the rotor and the tube contents divided into equal volume fractions. Any reasonable number of fractions may be employed; typically four or five fractions are used. To take the fractions, a pipette was carefully inserted into the liquid column in the sample tube to a point just below the liquid meniscus. […] The fractions were individually dispensed into microfuge tubes for analysis.
Mass spectrometric analysis of the samples was performed using either electrospray ionization (ESI) or atmospheric pressure chemical ionization (APCI) techniques. The ESI technique employed either a Model TSQ-700 or a Model LCQ mass spectrometer, and the APCI technique employed a Model LCQ mass spectrometer (both instruments manufactured by the Finnigan Corporation, 355 River Oaks Parkway, San Jose, Calif. 95134, USA).
For ESI analysis, fraction samples were diluted 1:5 with 50% aqueous acetonitrile, leaving the protein or protein fragment in solution. Ten-microliter aliquots, each representing about 10% of the sample, were introduced individually into the instrument by flow injection using 50% aqueous acetonitrile as the carrier. For initial studies with APCI, fractions were likewise diluted 1:5 with 50% aqueous acetonitrile. […] To reduce this background, subsequent samples analyzed by the APCI technique were diluted 1:5 with neat acetonitrile which caused the proteins or protein fragments to release their bound test compounds and precipitate. Sample solutions were then clarified by centrifugation in a microfuge for five minutes prior to analysis by APCI.

[2] = Solubility in the centrifuge carrier solvent (buffer), spun without protein; assay type: physicochemical
Description: as §1
as §2, with “volume/volume. As a result, each compound in the mixture of test compounds had equal access to available binding sites on the target molecule.” for “volume/volume.”
The analysis was carried out with a 25-compound library using the spin-screen method of the present invention with the compound concentration gradients being determined by mass spectrometry. Sample preparation, centrifugation, analysis by mass spectrometry, and data analysis were according to the techniques described above under the heading “General Methodology.” The results are shown in FIGS. 3A and 3B. The figures represent planar cuts of the three-dimensional surface contour plot defined by the three axes: m/z, sample fraction, and mass spectral signal intensity. The planar cuts are taken at comparatively high values constant values of m/z. That is to say, at m/z signal levels which detected only the most strongly binding ligands in the 25-compound library.
The analysis was carried out with a 25-compound library using the spin-screen method of the present invention with the compound concentration gradients being determined by mass spectrometry. Sample preparation, centrifugation, analysis by mass spectrometry, and data analysis were according to the techniques described above under the heading “General Methodology.” The results are presented in FIGS. 5A and 5B.

[3] = molecular target: yeast ribosomes isolated from Saccharomyces cerevisiae; experiment: spin-screen: centrifugation with yeast ribosomes, GFP fluorescence in each of five fractions
[4] = molecular target: T2, stromelysin catalytic domain (SCD) (Homo sapiens, UniProt P08254); experiment: Spin-screen (centrifugation) affinity binding to SCD, concentration gradients by HPLC; parameters: coding for amino acid residues 81-256 plus an initiating methionine aminoacyl residue; initiating methionine (N); made in house; host or cells: E. coli BL21(DE3)/pLysS, plasmid pETST-81-256 (pET3d); conditions: 100 μM ligand, 100 μM SCD; HPLC of five fractions; with SCD vs buffer only
Description: as §1, §2
Target sequence in this assay (P08254 98-272): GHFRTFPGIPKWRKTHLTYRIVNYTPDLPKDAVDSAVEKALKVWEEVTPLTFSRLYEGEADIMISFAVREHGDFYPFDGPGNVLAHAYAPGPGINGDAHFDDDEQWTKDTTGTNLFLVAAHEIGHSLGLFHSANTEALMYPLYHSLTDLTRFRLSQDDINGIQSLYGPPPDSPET
The compounds were added to the protein or buffer solutions in 7 mm×20 mm polycarbonate centrifuge tubes, mixed by vortexing, and placed in the centrifuge. […]

[5] = molecular target: T2, stromelysin catalytic domain (SCD); experiment: Affinity (Ki) for SCD previously determined by another method; assay type: binding
Target sequence in this assay (P08254 100-273): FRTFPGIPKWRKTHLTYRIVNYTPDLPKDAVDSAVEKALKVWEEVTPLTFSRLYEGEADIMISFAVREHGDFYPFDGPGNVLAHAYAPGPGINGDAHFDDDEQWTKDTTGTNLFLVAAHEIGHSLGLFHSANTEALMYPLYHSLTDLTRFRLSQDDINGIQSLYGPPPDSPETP

[6] = buffer with 1% dimethyl sulfoxide

T1 sequence (P21236 whole entry, change not shown): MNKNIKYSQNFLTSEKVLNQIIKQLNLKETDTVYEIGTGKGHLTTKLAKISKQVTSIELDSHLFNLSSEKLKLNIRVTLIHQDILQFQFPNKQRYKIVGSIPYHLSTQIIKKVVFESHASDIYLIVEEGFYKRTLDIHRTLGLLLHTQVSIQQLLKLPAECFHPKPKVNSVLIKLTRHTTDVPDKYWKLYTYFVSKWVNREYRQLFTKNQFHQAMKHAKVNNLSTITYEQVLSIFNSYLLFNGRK

| Compound | Binding to Erm AM from concentration gradient after centrifugation [1] | fraction of total fluorescence (fraction of total fluorescence) [3] | further results |
| --- | --- | --- | --- |
| N-[3-(2,4-dichloro-6-hydroxyphenyl)propyl]-N′-(2,3-dihydro-1H-inden-2-yl) | strongly bind | – | Solubility in the carrier solvent [2]: insoluble |
| O=C(Nc1ccc(C(=O)O)cc1)Nc1cccc(C(F)(F)F)c1 [4-[[[[3-(trifluoromethyl)phenyl]amino]-carbonyl]amino]benzoic acid] | bound weakly | – | Binding to Erm AM from concentration gradient after centrifugation ([1]; listed as 4-[[[(3-trifluoromethyl)-phenyl]amino]carbonyl]amino]benzoic acid): bind to Erm AM |
| Nc1cc(Cl)c(S(N)(=O)=O)cc1S(N)(=O)=O [4-amino-6-chloro-1,3benzenesulfonamide] | medium binding | – | Binding to Erm AM from concentration gradient after centrifugation ([1]; listed as 4-amino-6-chloro-1,3-benzenesulfonamide): bind to Erm AM; Solubility in the carrier solvent [2, 6]: soluble |
| GFP-EF3 fusion protein GFP-980-1025 | – | 0.2 | – |
| O=c1cc(O)c2ccccc2n1-c1ccc(OCc2ccccc2)cc1 [4-hydroxy-1-[4-(phenylmethoxy)phenyl]-2(1H)-quinoline] | strongly bound | – | Binding to Erm AM from concentration gradient after centrifugation ([1]; listed as 4-hydroxy-1-[4-(phenylmethoxy)-phenyl]-2(1H)-quinoline): bind to Erm AM; Solubility in the carrier solvent [2, 6]: soluble |
| N#Cc1ccc(-c2ccc(O)cc2)cc1 [4′-hydroxy-1,1-biphenyl-4-carbonitrile] | – | – | Binding to SCD from concentration gradient after centrifugation [4]: binds weakly; Ki [5]: ~1 mM |
| Nc1nc(NC2CCCCC2)nc(-c2ccc(O)cc2)n1 [4-[4-amino-6-(cyclohexylamino)-1,3,5-triazin-2-yl]phenol] | strongly bind | – | Solubility in the carrier solvent [2]: soluble |
| Nc1nc(NC2CCCCC2)nc(N2CCCCC2)n1 [N-cyclohexyl-6-(1-piperidinyl)-1,3,5-triazine-2,4-diamine] | strongly bind | – | Binding to Erm AM from concentration gradient after centrifugation ([1]; listed as m/z=277): bound more strongly to Erm-AM than the compound at m/z=286; Solubility in the carrier solvent [2]: soluble |
| GFP-EF3 fusion protein GFP-980-1013 | – | 0.2 | – |
| GFP-EF3 fusion protein GFP-980-1008:1025-1031 | – | 0.2 | – |
| CN(CCCc1c(O)cc(Cl)cc1Cl)c1nc(N)nc(NC2CCCCC2)n1 [N′cyclohexyl-N-[3-(2,4-dichloro-6-hydroxyphenyl)propyl]-N-methyl-1,3,5triazine-2,4,6-triamine] | strongly bind | – | Solubility in the carrier solvent [2]: insoluble |
| GFP-EF3 fusion protein GFP-980-1008 | – | 0.2 | – |
| O=C(O)c1ccccc1C(=O)OC(c1ccccc1)c1cccc(Cl)c1 (centres unmarked) [1,2-benzenedicarboxylic acid, mono[(3-chlorophenyl)phenylmethyl] ester] | bound strongly | – | Binding to Erm AM from concentration gradient after centrifugation ([1]; mono [(3-chloro-phenyl)phenylmethyl] ester): bind to Erm AM |
| GFP-EF3 fusion protein GFP-980-1019 | – | 0.2 | – |
